According to patent publication US6448259B1 (dated 2002):

| melting point | SMILES |
| --- | --- |
| 240 to 241 °C | COc1ccc(CNC(=O)c2c[nH]c3c(c2=O)CCC3)cc1 |
| 287 to 290 °C | COc1ccc(NC(=O)c2c[nH]c3c(c2=O)CCCC3)cc1 |
| 350 to 352 °C | Cc1csc(NC(=O)c2c[nH]c3c(c2=O)CCCC3)n1 |
| 324 to 326 °C | O=C(Nc1ccc(F)cc1)c1c[nH]c2c(c1=O)CCCC2 |
| 308 °C (dec.) | O=C(Nc1cccnc1)c1c[nH]c2c(c1=O)CCCC2 |
| 275 to 280 °C | COc1cccc(NC(=O)c2c[nH]c3c(c2=O)CCCC3)c1 |
| 312 °C (dec.) | COc1ccnc(NC(=O)c2c[nH]c3c(c2=O)CCCC3)c1 |
| 133 to 136 °C | O=C(NCc1cccc(O)c1)c1c[nH]c2c(c1=O)CCCC2 |
| 257 to 259 °C | O=C(NCc1ccccc1)c1c[nH]c2c(c1=O)CCCC2 |
| 241 to 244 °C | COc1ccc(CNC(=O)c2c[nH]c3c(c2=O)CCCC3)cc1 |
| 306 °C (dec.) | O=C(Nc1cccs1)c1c[nH]c2c(c1=O)CCCC2 |
| 339 to 341 °C | O=C(Nc1ccccc1Cl)c1c[nH]c2c(c1=O)CCCC2 |
| 321 to 324 °C | O=C(Nc1ccsc1)c1c[nH]c2c(c1=O)CCCC2 |
| 278 to 280 °C | O=C(Nc1c(F)cccc1F)c1c[nH]c2c(c1=O)CCCC2 |
| 217 to 219 °C | COc1ccccc1CNC(=O)c1c[nH]c2c(c1=O)CCCC2 |
| 210 to 212 °C | COc1cccc(CNC(=O)c2c[nH]c3c(c2=O)CCCC3)c1 |
| 206 to 208 °C | O=C(NCc1ccccc1F)c1c[nH]c2c(c1=O)CCCC2 |
| 294 to 295 °C | O=C(Nc1ccccn1)c1c[nH]c2c(c1=O)CCC2 |
| 304 to 305 °C | Cc1csc(NC(=O)c2c[nH]c3c(c2=O)CCC3)n1 |
| 305 °C (dec.) | O=C(Nc1nccs1)c1c[nH]c2c(c1=O)CCC2 |

| melting point | SMILES |
| --- | --- |
| 340 °C (dec.) | O=C(Nc1cccc(F)c1)c1c[nH]c2c(c1=O)CCC2 |
| 330 °C (dec.) | O=C(Nc1ccccc1F)c1c[nH]c2c(c1=O)CCC2 |
| 328 °C (dec.) | O=C(Nc1ccc(F)cc1F)c1c[nH]c2c(c1=O)CCC2 |
| 297 °C (dec.) | O=C(Nc1c(F)cccc1F)c1c[nH]c2c(c1=O)CCC2 |
| 149 to 150 °C | O=C(NCc1ccccc1)c1c[nH]c2c(c1=O)CCC2 |
| 204 to 205 °C | COc1cccc(CNC(=O)c2c[nH]c3c(c2=O)CCC3)c1 |
| 243 to 244 °C | COc1ccccc1CNC(=O)c1c[nH]c2c(c1=O)CCC2 |
| 294 to 295 °C | O=C(NCc1c(F)cccc1F)c1c[nH]c2c(c1=O)CCC2 |
| 210 °C (dec.) | O=C(Nc1cccs1)c1c[nH]c2c(c1=O)CCC2 |
| 138 to 143 °C | CCCCNC(=O)c1c[nH]c2c(c1=O)CCCCC2 |
| 295 to 296 °C | O=C(Nc1ccccc1)c1c[nH]c2c(c1=O)CCC2 |
| 301 °C (dec.) | O=C(Nc1nccs1)c1c[nH]c2c(c1=O)CCCCC2 |
| 240 to 242 °C | COc1ccc(NC(=O)c2c[nH]c3c(c2=O)CCCCC3)cc1 |
| 224 to 226 °C | O=C(NCc1ccccc1)c1c[nH]c2c(c1=O)CCCCC2 |
| 203 to 205 °C | COc1ccc(CNC(=O)c2c[nH]c3c(c2=O)CCCCC3)cc1 |
| 219 to 222 °C | O=C(NCc1ccc(F)cc1)c1c[nH]c2c(c1=O)CCCCC2 |
| 267 to 270 °C | O=C(NCc1cccc(F)c1)c1c[nH]c2c(c1=O)CCCC2 |
| 278 to 280 °C | O=C(NCc1ccc(F)cc1)c1c[nH]c2c(c1=O)CCCC2 |
| 247 to 249 °C | O=C(NCc1cccc(Cl)c1)c1c[nH]c2c(c1=O)CCCC2 |
| 283 to 285 °C | O=C(NCc1ccc(Cl)cc1)c1c[nH]c2c(c1=O)CCCC2 |

| melting point | SMILES |
| --- | --- |
| 257 to 259 °C | COc1ccc(CNC(=O)c2c[nH]c3c(c2=O)CCCC3)c(F)c1 |
| 241 to 244 °C | O=C(Nc1ccccc1F)c1c[nH]c2c(c1=O)CCCC2 |
| 241 to 243 °C | CCOc1ccc(CNC(=O)c2c[nH]c3c(c2=O)CCCC3)cc1 |
| 270 to 273 °C | Cc1ccc(CNC(=O)c2c[nH]c3c(c2=O)CCCC3)cc1 |
| 242 to 245 °C | Cc1cccc(CNC(=O)c2c[nH]c3c(c2=O)CCCC3)c1 |
| 178 to 181 °C | CCOc1ccc(CNC(=O)c2c[nH]c3c(c2=O)CCCC3)c(F)c1 |
| 197 to 200 °C | CC(C)Oc1ccc(CNC(=O)c2c[nH]c3c(c2=O)CCCC3)c(F)c1 |
| 245 to 248 °C | O=C(NCc1cccs1)c1c[nH]c2c(c1=O)CCCC2 |
| 330 to 332 °C | COc1ccc(NC(=O)c2c[nH]c3c(c2=O)CCC3)cc1 |
| 320 °C (dec.) | COc1cccc(NC(=O)c2c[nH]c3c(c2=O)CCC3)c1 |
| 220 to 222 °C | O=C(Nc1ccc(OCCO)cc1)c1c[nH]c2c(c1=O)CCC2 |
| 263 to 265 °C | O=C(NCc1ccc2c(c1)OCO2)c1c[nH]c2c(c1=O)CCCC2 |
| 217 to 219 °C | CCOc1ccc(CNC(=O)c2c[nH]c3c(c2=O)CCC3)c(F)c1 |
| 214 °C (dec.) | CC(C)Oc1ccc(CNC(=O)c2c[nH]c3c(c2=O)CCC3)c(F)c1 |
| 209 to 211 °C | CCCOc1ccc(CNC(=O)c2c[nH]c3c(c2=O)CCC3)c(F)c1 |
| 259 to 261 °C | O=C(NCc1ccccc1F)c1c[nH]c2c(c1=O)CCC2 |
| 319 to 320 °C | O=C(Nc1cccc(F)c1)c1c[nH]c2c(c1=O)CCCC2 |
| 299 to 300 °C | O=C(Nc1ccccc1)c1c[nH]c2c(c1=O)CCCC2 |
| 260 °C (dec.) | O=C(Nc1nccs1)c1c[nH]c2c(c1=O)CCCC2 |
